Test results from article PMC7767178 (International Journal of Molecular Sciences, 2020).
Values after ≈ are worked out from the molar mass of the structure shown. Where two headings read alike, the source gives them in different places. Positions of bridges follow the written chain, without caps; N, C: chain ends. Residues, ends and D or L forms follow the SMILES beside them.

Experiments:
[1] = system: pepsin; details: pH 2
[2] = system: A. veronii ATCC35624; format: cell-based
[3] = system: A. veronii ACCC61732; assay: pH stability, MIC read-out; format: physicochemical; details: MIC against A. veronii ACCC61732; for MIC after treatment at pH 10: glycine-NaOH buffer pH 10.0, 3 h; for MIC after treatment at pH 6: sodium phosphate buffer pH 6.0, 3 h; for MIC after treatment at pH 8: tris-HCl buffer pH 8.0, 3 h
Procedure: To evaluate pH stability, peptides were dissolved in glycine-HCl buffer (pH 2.0), sodium acetate buffer (pH 4.0), sodium phosphate buffer (pH 6.0), tris-HCl buffer (pH 8.0), or glycine-NaOH buffer (pH 10.0) and treated for 3 h. The MIC values of peptides against A. veronii ACCC61732 were measured as described above.

[4] = system: A. veronii ACCC61732; details: 3 h, MIC against A. veronii ACCC61732; for MIC after physiological salt 50 mM: NaCl 50 mM; for MIC after physiological salt 100 mM: NaCl 100 mM
Procedure: Similarly, salt stability of peptides was determined after a 3 h-incubation in different NaCl solutions (50, 100, 200, 300, 400, and 500 mM). […] The activity of peptides against A. veronii ACCC61732 was determined as described above. The untreated peptides were used as the positive control and buffers alone were used as the negative control. All assays were conducted in triplicate.

[5] = system: A. veronii ACCC61732; assay: Organ injury in peritonitis model, histology; format: in vivo, mice; details: peptides 5 μmol/kg, CIP 1 μmol/kg
Procedure: Livers, kidneys, spleens, and lungs were removed from mice at 24 h and five days post treatment to evaluate the organ injury. After washing with PBS, the organs were fixed in 4% paraform-aldehyde for 24 h at 4 °C, dehydrated by a graded series of ethanol (75‒95%), and infiltrated with xylene. The organs were then embedded in paraffin wax, sectioned, and stained with hematoxylin and eosin. Finally, the tissue samples were fixed and observed by the light microscope. The CIP-treated mice served as the positive control and the PBS group served as the negative control.

[6] = system: A. veronii ACCC61732 biofilms; assay: Mouse model of catheter-associated biofilm infection, bacteria in catheter; format: in vivo, ICR mice; details: 5 μmol/kg peptide or CIP 24 h after catheter implantation, catheters collected after seven days, six mice per group
Procedure: Briefly, the catheter was cut into 1 cm segments; each piece was sterilized with 70% ethanol and then dried by air. Bacterial biofilms were developed on the catheter by placing individual segments into tubes containing 1.0 mL of a cell suspension (1 × 10^8 CFU/mL) in TSB. After incubation for 24 h at 37 °C, colonized catheters were recovered aseptically and rinsed with PBS to remove unbound bacteria. ICR female mice (20 ± 5 g) were anesthetized with isoflurane; the flanks were shaved and the skin was cleansed with alcohol. […] The incision was then covered with intact skin and closed with surgical suture line and the skin was disinfected. […] The untreated mice were used as the negative control and the mice with sterile catheter were used as the blank control. The mice were anesthetized and sacrificed after seven days. The catheters in the back of the mice were collected and thoroughly shaken in sterile PBS.

[7] = system: A. veronii ACCC61732; format: physicochemical; details: MIC against A. veronii ACCC61732; for MIC after treatment at 4 °C: 1 h at 4 °C; for MIC after treatment at 20 °C: 1 h at 20 °C; for MIC after treatment at 40 °C: 1 h at 40 °C; for MIC after treatment at 60 °C: 1 h at 60 °C; for MIC after treatment at 80 °C: 1 h at 80 °C
Procedure: The thermal stability of peptides was determined after treatment for 1 h at different temperatures (4, 20, 40, 60, 80, and 100 °C). The relative antibacterial activity of peptides against A. veronii ACCC61732 was determined by the MIC assay.

[8] = system: RAW 264.7 cells; assay: Cytotoxicity, MTT; format: cell-based; details: 24 h
Procedure: To determine the cytotoxicity of peptides, RAW 264.7 cells (2.5 × 10^4 cells/well) were seeded into 96-well plates and incubated for 24 h. […] The cells were dyed with 3-(4,5-dimethyl-2-thiazolyl)-2,5-diphenyl-2-H-tetrazolium bromide (MTT) (5 mg/mL) for 4 h, incubated with dimethyl sulfoxide (DMSO), and measured at 570 nm. PBS was used as controls. The cell survival rate was calculated by the equation: Survival rate (%) = (Abspeptide/AbsPBS) × 100 [25].

[9] = 37 °C
[10] = system: A. veronii ACCC61732; assay: SEM morphology; format: cell-based; details: 4× MIC, 2 h
Procedure: MDR A. veronii ACCC61732 cells were cultured in MHB at 37 °C (250 rpm) until the mid-log phase of growth, harvested by centrifugation, and diluted with 0.01 M PBS (pH 7.4) to 0.5–5 × 10^8 CFU/mL. […] For SEM, the samples were harvested (5000× g, 5 min) and fixed with 2.5% glutaraldehyde at 4 °C overnight. The cells were dehydrated for 10 min in a graded ethanol series (50%, 70%, 90%, and 100%) and transferred to a mixture of 100% ethanol, tertiary butanol, and absolute tertiary butanol (v:v = 1:1) for 15 min. Finally, the specimens were dehydrated in a critical point dryer with liquid CO2, coated with gold–palladium, and observed using a QUANTA200 (FEI, Philips, Amsterdam, Netherlands).

[11] = 60 min, 200 μg/mL peptide, 37 °C, inhibition zone against A. veronii ACCC61732
Procedure: Briefly, a final concentration of 200 μg/mL peptide was incubated in SGF and SIF at 37 °C. At different time intervals, an aliquot of 20 μL mixture was taken and the activity of peptides was tested against A. veronii ACCC61732 by the inhibition zone assay. […] in PBS was used as the positive control; SGF and SIF were used as negative controls.

[12] = A. veronii ATCC35624, broth dilution, 37 °C, 16–18 h, three experiments

| SMILES | MIC after pepsin treatment [1] | MIC [2, 12] [µg/mL] | MIC ([2]; ATCC35624) [µM] | MIC after treatment at pH 10 [3] [μg/mL] | MIC after treatment at pH 6 [3] [μg/mL] | MIC after treatment at pH 8 [3] [μg/mL] | MIC after physiological salt 50 mM [4] [μg/mL] | MIC after physiological salt 100 mM [4] [μg/mL] | effect on injury of liver, spleen, kidney and lung [5] | decrease of bacterial cells in the catheter [6] [%] | MIC after treatment at 4 °C [7] [µg/mL] | MIC after treatment at 20 °C [7] [µg/mL] | MIC after treatment at 40 °C [7] [µg/mL] | MIC after treatment at 60 °C [7] [µg/mL] | MIC after treatment at 80 °C [7] [µg/mL] | further results |
| --- | --- | --- | --- | --- | --- | --- | --- | --- | --- | --- | --- | --- | --- | --- | --- | --- |
| CC(C)[C@@H]1NC(=O)CNC(=O)[C@H](CC(N)=O)NC(=O)[C@H](CCCNC(=N)N)NC(=O)[C@H](Cc2ccc(O)cc2)NC(=O)[C@H](C(C)C)NC(=O)[C@@H](NC(=O)[C@@H](NC(=O)[C@H](CC(N)=O)NC(=O)[C@H](Cc2c[nH]c3ccccc23)NC(=O)[C@H](C)NC(=O)[C@H](Cc2ccccc2)NC(=O)[C@H](CCCN)N=C(N(C)C)N(C)C)C(C)C)CSSC[C@@H](C(=O)N[C@@H](Cc2c[nH]cn2)C(=O)N[C@@H](CCCNC(=N)N)C(=O)N[C@@H](CCCNC(=N)N)C(=O)N[C@@H](C)C(=O)N[C@@H](CC(N)=O)C(N)=O)NC(=O)[C@H](C(C)C)NC(=O)[C@H](CCCNC(=N)N)NC1=O (stereo in doubt) [Guo-N6NH2] | 8 µg/mL (≈ 3.04 µM) | 32 | 12.16 |  |  |  |  |  |  |  |  |  |  |  |  |  |
| CC(C)[C@@H]1NC(=O)CNC(=O)[C@H](CC(N)=O)NC(=O)[C@H](CCCNC(=N)N)NC(=O)[C@H](Cc2ccc(O)cc2)NC(=O)[C@H](C(C)C)NC(=O)[C@@H](NC(=O)[C@@H](NC(=O)[C@H](CC(N)=O)NC(=O)[C@H](Cc2c[nH]c3ccccc23)NC(=O)[C@H](C)NC(=O)[C@H](Cc2ccccc2)NC(=O)CN)C(C)C)CSSC[C@@H](C(=O)N[C@@H](Cc2cnc[nH]2)C(=O)N[C@@H](CCCNC(=N)N)C(=O)N[C@@H](CCCNC(=N)N)C(=O)N[C@@H](C)C(=O)N[C@@H](CC(N)=O)C(N)=O)NC(=O)[C@H](C(C)C)NC(=O)[C@H](CCCNC(=N)N)NC1=O [N6NH2] |  | 8 | 3.23 | 4 | 4 | 4 | 4 | 4 | remarkably alleviated the injury of the liver and spleen | 41.48 | 4 (≈ 1.62 µM) | 4 (≈ 1.62 µM) | 4 (≈ 1.62 µM) | 4 (≈ 1.62 µM) | 4 (≈ 1.62 µM) | MIC after treatment at pH 2 ([3]; glycine-HCl buffer pH 2.0, 3 h): 4 μg/mL; MIC after treatment at pH 4 ([3]; sodium acetate buffer pH 4.0, 3 h): 4 μg/mL |
| CC(C)[C@@H]1NC(=O)CNC(=O)[C@H](CC(N)=O)NC(=O)[C@H](CCCNC(=N)N)NC(=O)[C@H](Cc2ccc(O)cc2)NC(=O)[C@H](C(C)C)NC(=O)[C@@H](NC(=O)[C@@H](NC(=O)[C@H](CC(N)=O)NC(=O)[C@H](Cc2c[nH]c3ccccc23)NC(=O)[C@H](C)NC(=O)[C@H](Cc2ccccc2)NC(=O)CN)C(C)C)CSSC[C@@H](C(=O)N[C@@H](Cc2c[nH]cn2)C(=O)N[C@@H](CCCNC(=N)N)C(=O)N2CCC[C@H]2C(=O)N[C@@H](C)C(=O)N[C@@H](CC(N)=O)C(N)=O)NC(=O)[C@H](C(C)C)NC(=O)[C@H](CCCNC(=N)N)NC1=O [N6PNH2] (H-GFAWNVCVYRNGVRVCHRPAN-NH2; disulfide 7-16 (inferred)) |  | 64 | 26.49 |  |  |  |  |  | worst therapeutic effect | 54.09 |  |  |  |  |  |  |
| CC(C)[C@H]1NC(=O)CNC(=O)[C@@H](CC(N)=O)NC(=O)[C@@H](CCCNC(=N)N)NC(=O)[C@@H](Cc2ccc(O)cc2)NC(=O)[C@@H](C(C)C)NC(=O)[C@H](NC(=O)[C@H](NC(=O)[C@@H](CC(N)=O)NC(=O)[C@@H](Cc2c[nH]c3ccccc23)NC(=O)[C@@H](C)NC(=O)[C@@H](Cc2ccccc2)NC(=O)CN)C(C)C)CSSC[C@H](C(=O)N[C@H](Cc2c[nH]cn2)C(=O)N[C@H](CCCNC(=N)N)C(=O)N[C@H](CCCNC(=N)N)C(=O)N[C@H](C)C(=O)N[C@H](CC(N)=O)C(N)=O)NC(=O)[C@@H](C(C)C)NC(=O)[C@@H](CCCNC(=N)N)NC1=O [DN6NH2] | retained the antibacterial activity | 64 | 25.86 | 4 | 4 | 4 | 4 | 4 | remarkably alleviated the injury of the liver and spleen | 71.55 | 4 (≈ 1.62 µM) | 4 (≈ 1.62 µM) | 4 (≈ 1.62 µM) | 4 (≈ 1.62 µM) | 4 (≈ 1.62 µM) | cell survival rate at low concentrations [8]: over 100%; activity retained in SIF ([9]; 200 μg/mL peptide, inhibition zone against A. veronii ACCC61732): 100%; state after incubation in SIF ([9]; 1 h): remained intact; cells producing filamentous substances [10]: over 50%; MIC after physiological salt 200 mM ([4]; NaCl 200 mM): 4 μg/mL; MIC after physiological salt 300 mM ([4]; NaCl 300 mM): 4 μg/mL; MIC after physiological salt 400 mM ([4]; NaCl 400 mM): 4 μg/mL; MIC after physiological salt 500 mM ([4]; NaCl 500 mM): 4 μg/mL; antibacterial activity after treatment in SGF [11]: higher antibacterial activity than N6NH2 and other analogs |
| CC(C)[C@H](N)C(=O)N[C@@H](Cc1ccccc1)C(=O)N[C@@H](C)C(=O)N[C@@H](Cc1c[nH]c2ccccc12)C(=O)N[C@@H](CC(N)=O)C(=O)N[C@H](C(=O)N[C@H]1CSSC[C@@H](C(=O)N[C@@H](Cc2c[nH]cn2)C(=O)N[C@@H](CCCNC(=N)N)C(=O)N[C@@H](CCCNC(=N)N)C(=O)N[C@@H](C)C(=O)N[C@@H](CC(N)=O)C(N)=O)NC(=O)[C@H](C(C)C)NC(=O)[C@H](CCCNC(=N)N)NC(=O)[C@H](C(C)C)NC(=O)[C@H](C(C)C)NC(=O)[C@H](CC(N)=O)NC(=O)[C@H](CCCNC(=N)N)NC(=O)[C@H](Cc2ccc(O)cc2)NC(=O)[C@H](C(C)C)NC1=O)C(C)C [V112N6NH2] (H-VFAWNVCVYRNVVRVCHRRAN-NH2; disulfide 7-16 (inferred)) |  | 16 | 6.25 |  |  |  |  |  | significantly less damaged | 55.29 |  |  |  |  |  |  |
